Legend:
Experiment in all cases: relative viability (nuclei count vs DMSO), 5 days (fraction); higher = more cells survive
[1] = test system: NCI-H520
Summary of the method: (§1)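 Relative viability divides the nuclei count in treated wells by that in vehicle wells. Lung cancer cell lines were seeded in 1536-well plates, dosed by pin tool the next day, and fixed and stained after 5 days in one step with final 0.05% Triton X-100, 1% formaldehyde and 1 ug/ml Hoechst. Dosing was a single drug or a fixed anchor-drug dose plus five library-drug doses (not always all listed) in √10 steps, and values are medians of duplicate plates imaged at 4×.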

[2] = test system: NCI-H647
Summary of the method: as §1

[3] = test system: NCI-H2170
Summary of the method: as §1

[4] = test system: NCI-H460
Summary of the method: as §1

[5] = test system: HOP-62
Summary of the method: as §1

[6] = test system: NCI-H727
Summary of the method: as §1

[7] = test system: NCI-H2405
Summary of the method: as §1

[8] = test system: NCI-H2023
Summary of the method: as §1

[9] = test system: ChaGo-K-1
Summary of the method: as §1

[10] = test system: NCI-H441
Summary of the method: as §1

[11] = test system: NCI-H1793
Summary of the method: as §1

[12] = test system: NCI-H1437
Summary of the method: as §1

[13] = test system: HCC-44
Summary of the method: as §1

[14] = test system: LOU-NH91
Summary of the method: as §1

[15] = test system: EMC-BAC-2
Summary of the method: as §1

[16] = test system: SW 1573
Summary of the method: as §1

[17] = test system: NCI-H650
Summary of the method: as §1

[18] = test system: NCI-H23
Summary of the method: as §1

[19] = test system: EPLC-272H
Summary of the method: as §1

[20] = test system: NCI-H2009
Summary of the method: as §1

[21] = test system: LCLC-103H
Summary of the method: as §1

[22] = test system: NCI-H2347
Summary of the method: as §1

[23] = test system: NCI-H2126
Summary of the method: as §1

`O=c1[nH]c2ccccc2n1C1CCN(CCCC(c2ccc(F)cc2)c2ccc(F)cc2)CC1` [Pimozide] + O=C(c1cc(Cc2n[nH]c(=O)c3ccccc23)ccc1F)N1CCN(C(=O)C2CC2)CC1 [Olaparib] (partner 8 µM) gave a relative viability ([1]; first compound 0.08 µM) of 0.33, a relative viability ([1]; first compound 0.253 µM) of 0.345 and a relative viability ([1]; first compound 0.8 µM) of 0.266. For the same molecule, the relative viability ([1]; first compound 2.53 µM) was 0.312, the relative viability ([1]; first compound 8 µM) was 0.276 and the relative viability ([2]; first compound 0.08 µM) was 0.562. The relative viability ([2]; first compound 0.253 µM) was 0.503, the relative viability ([2]; first compound 0.8 µM) was 0.391 and the relative viability ([2]; first compound 2.53 µM) was 0.495. The relative viability ([2]; first compound 8 µM) was 0.28, the relative viability ([3]; first compound 0.08 µM) was 0.592 and the relative viability ([3]; first compound 0.253 µM) was 0.554. For the same molecule, the relative viability ([3]; first compound 0.8 µM) was 0.608, the relative viability ([3]; first compound 2.53 µM) was 0.593 and the relative viability ([3]; first compound 8 µM) was 0.543. For the same molecule, the relative viability ([4]; first compound 0.08 µM) was 0.499, the relative viability ([4]; first compound 0.253 µM) was 0.48 and the relative viability ([4]; first compound 0.8 µM) was 0.394. The relative viability ([4]; first compound 2.53 µM) was 0.361, the relative viability ([4]; first compound 8 µM) was 0.398 and the relative viability ([5]; first compound 0.08 µM) was 0.588. The relative viability ([5]; first compound 0.253 µM) was 0.342, the relative viability ([5]; first compound 0.8 µM) was 0.356 and the relative viability ([5]; first compound 2.53 µM) was 0.39. The relative viability ([5]; first compound 8 µM) was 0.56, the relative viability ([6]; first compound 0.08 µM) was 0.731 and the relative viability ([6]; first compound 0.253 µM) was 0.674. The relative viability ([6]; first compound 0.8 µM) was 0.725, the relative viability ([6]; first compound 2.53 µM) was 0.549 and the relative viability ([6]; first compound 8 µM) was 0.739. For the same molecule, the relative viability ([7]; first compound 0.08 µM) was 0.833, the relative viability ([7]; first compound 0.253 µM) was 0.826 and the relative viability ([7]; first compound 0.8 µM) was 0.822. For the same molecule, the relative viability ([7]; first compound 2.53 µM) was 0.722, the relative viability ([7]; first compound 8 µM) was 0.693 and the relative viability ([8]; first compound 0.08 µM) was 0.481. The relative viability ([8]; first compound 0.253 µM) was 0.47, the relative viability ([8]; first compound 0.8 µM) was 0.444 and the relative viability ([8]; first compound 2.53 µM) was 0.351. It also gave a relative viability ([8]; first compound 8 µM) of 0.348, a relative viability ([9]; first compound 0.08 µM) of 0.402 and a relative viability ([9]; first compound 0.253 µM) of 0.365. The relative viability ([9]; first compound 0.8 µM) was 0.433, the relative viability ([9]; first compound 2.53 µM) was 0.467 and the relative viability ([9]; first compound 8 µM) was 0.413. For the same molecule, the relative viability ([10]; first compound 0.08 µM) was 0.641, the relative viability ([10]; first compound 0.253 µM) was 0.593 and the relative viability ([10]; first compound 0.8 µM) was 0.506. For the same molecule, the relative viability ([10]; first compound 2.53 µM) was 0.416, the relative viability ([10]; first compound 8 µM) was 0.57 and the relative viability ([11]; first compound 0.08 µM) was 0.762. It also gave a relative viability ([11]; first compound 0.253 µM) of 0.826, a relative viability ([11]; first compound 0.8 µM) of 0.875 and a relative viability ([11]; first compound 2.53 µM) of 0.772. For the same molecule, the relative viability ([11]; first compound 8 µM) was 0.706, the relative viability ([12]; first compound 0.08 µM) was 0.615 and the relative viability ([12]; first compound 0.253 µM) was 0.616. The relative viability ([12]; first compound 0.8 µM) was 0.6, the relative viability ([12]; first compound 2.53 µM) was 0.573 and the relative viability ([12]; first compound 8 µM) was 0.463. The relative viability ([13]; first compound 0.08 µM) was 1, the relative viability ([13]; first compound 0.253 µM) was 1.02 and the relative viability ([13]; first compound 0.8 µM) was 0.938. The relative viability ([13]; first compound 2.53 µM) was 0.973, the relative viability ([13]; first compound 8 µM) was 0.931 and the relative viability ([14]; first compound 0.08 µM) was 0.655. For the same molecule, the relative viability ([14]; first compound 0.253 µM) was 0.911, the relative viability ([14]; first compound 0.8 µM) was 0.866 and the relative viability ([14]; first compound 2.53 µM) was 0.962. It also gave a relative viability ([14]; first compound 8 µM) of 0.971, a relative viability ([15]; first compound 0.08 µM) of 0.506 and a relative viability ([15]; first compound 0.253 µM) of 0.463. The relative viability ([15]; first compound 0.8 µM) was 0.455, the relative viability ([15]; first compound 2.53 µM) was 0.456 and the relative viability ([15]; first compound 8 µM) was 0.448. The relative viability ([16]; first compound 0.08 µM) was 0.457, the relative viability ([16]; first compound 0.253 µM) was 0.442 and the relative viability ([16]; first compound 0.8 µM) was 0.448. It also gave a relative viability ([16]; first compound 2.53 µM) of 0.38, a relative viability ([16]; first compound 8 µM) of 0.391 and a relative viability ([17]; first compound 0.08 µM) of 0.409. The relative viability ([17]; first compound 0.253 µM) was 0.333, the relative viability ([17]; first compound 0.8 µM) was 0.475 and the relative viability ([17]; first compound 2.53 µM) was 0.404. The relative viability ([17]; first compound 8 µM) was 0.408, the relative viability ([18]; first compound 0.08 µM) was 0.293 and the relative viability ([18]; first compound 0.253 µM) was 0.326. For the same molecule, the relative viability ([18]; first compound 0.8 µM) was 0.325, the relative viability ([18]; first compound 2.53 µM) was 0.285 and the relative viability ([18]; first compound 8 µM) was 0.275. It also gave a relative viability ([19]; first compound 0.08 µM) of 0.869, a relative viability ([19]; first compound 0.253 µM) of 0.709 and a relative viability ([19]; first compound 0.8 µM) of 0.847. The relative viability ([19]; first compound 2.53 µM) was 0.554, the relative viability ([19]; first compound 8 µM) was 0.646 and the relative viability ([20]; first compound 0.08 µM) was 0.761. The relative viability ([20]; first compound 0.253 µM) was 0.649, the relative viability ([20]; first compound 0.8 µM) was 0.769 and the relative viability ([20]; first compound 2.53 µM) was 0.683. It also gave a relative viability ([20]; first compound 8 µM) of 0.629, a relative viability ([21]; first compound 0.08 µM) of 0.782 and a relative viability ([21]; first compound 0.253 µM) of 0.721. For the same molecule, the relative viability ([21]; first compound 0.8 µM) was 0.722, the relative viability ([21]; first compound 2.53 µM) was 0.695 and the relative viability ([21]; first compound 8 µM) was 0.72. It also gave a relative viability ([22]; first compound 0.08 µM) of 0.663, a relative viability ([22]; first compound 0.253 µM) of 0.556 and a relative viability ([22]; first compound 0.8 µM) of 0.577. For the same molecule, the relative viability ([22]; first compound 2.53 µM) was 0.519, the relative viability ([22]; first compound 8 µM) was 0.587 and the relative viability ([23]; first compound 0.08 µM) was 0.922. It also gave a relative viability ([23]; first compound 0.253 µM) of 0.89, a relative viability ([23]; first compound 0.8 µM) of 0.944 and a relative viability ([23]; first compound 2.53 µM) of 0.92. For the same molecule, the relative viability ([23]; first compound 8 µM) was 0.858.

Reference: the supplement of paper PMC10307832
